Broadly, the IC50 is the midpoint of a concentration-inhibition curve.

Data on seven substances can be found in publication PMC6892751, “Novel Angiotensin-Converting Enzyme-Inhibitory Peptides From Fermented Bovine Milk Started by Lactobacillus helveticus KLDS.31 and Lactobacillus casei KLDS.105: Purification, Identification, and Interaction Mechanisms” (Frontiers in Microbiology, 2019).

Like-named read-outs stand apart in the source and are kept apart here. Where no end group is shown, it is not given here.

One assay has as its system ACE. The following applies: read-out: IC50 of ACE inhibition, cited from earlier work. The text has this:
ACE-inhibitory peptides from bovine milk protein have been described previously ([De Leo et al., 2009]). These bioactive peptides are typically produced by enzymatic hydrolysis, microbial fermentation, or genetic engineering. In particular, more attention has been focused on microbial fermentation as the food grade bacteria, such as lactic acid bacteria (LAB), provide enriched food bioactive substances ([Castellano et al., 2013]). Furthermore, the hydrolytic processing of milk protein through the action of chymosin and Lactobacillus casei can also improve cheese flavor ([Lemieux et al., 2010]) ...

Assay [1] concerns the target T1, angiotensin I-converting enzyme (ACE) (Oryctolagus cuniculus, UniProt P12822).
T1 sequence (P12822 34-1310): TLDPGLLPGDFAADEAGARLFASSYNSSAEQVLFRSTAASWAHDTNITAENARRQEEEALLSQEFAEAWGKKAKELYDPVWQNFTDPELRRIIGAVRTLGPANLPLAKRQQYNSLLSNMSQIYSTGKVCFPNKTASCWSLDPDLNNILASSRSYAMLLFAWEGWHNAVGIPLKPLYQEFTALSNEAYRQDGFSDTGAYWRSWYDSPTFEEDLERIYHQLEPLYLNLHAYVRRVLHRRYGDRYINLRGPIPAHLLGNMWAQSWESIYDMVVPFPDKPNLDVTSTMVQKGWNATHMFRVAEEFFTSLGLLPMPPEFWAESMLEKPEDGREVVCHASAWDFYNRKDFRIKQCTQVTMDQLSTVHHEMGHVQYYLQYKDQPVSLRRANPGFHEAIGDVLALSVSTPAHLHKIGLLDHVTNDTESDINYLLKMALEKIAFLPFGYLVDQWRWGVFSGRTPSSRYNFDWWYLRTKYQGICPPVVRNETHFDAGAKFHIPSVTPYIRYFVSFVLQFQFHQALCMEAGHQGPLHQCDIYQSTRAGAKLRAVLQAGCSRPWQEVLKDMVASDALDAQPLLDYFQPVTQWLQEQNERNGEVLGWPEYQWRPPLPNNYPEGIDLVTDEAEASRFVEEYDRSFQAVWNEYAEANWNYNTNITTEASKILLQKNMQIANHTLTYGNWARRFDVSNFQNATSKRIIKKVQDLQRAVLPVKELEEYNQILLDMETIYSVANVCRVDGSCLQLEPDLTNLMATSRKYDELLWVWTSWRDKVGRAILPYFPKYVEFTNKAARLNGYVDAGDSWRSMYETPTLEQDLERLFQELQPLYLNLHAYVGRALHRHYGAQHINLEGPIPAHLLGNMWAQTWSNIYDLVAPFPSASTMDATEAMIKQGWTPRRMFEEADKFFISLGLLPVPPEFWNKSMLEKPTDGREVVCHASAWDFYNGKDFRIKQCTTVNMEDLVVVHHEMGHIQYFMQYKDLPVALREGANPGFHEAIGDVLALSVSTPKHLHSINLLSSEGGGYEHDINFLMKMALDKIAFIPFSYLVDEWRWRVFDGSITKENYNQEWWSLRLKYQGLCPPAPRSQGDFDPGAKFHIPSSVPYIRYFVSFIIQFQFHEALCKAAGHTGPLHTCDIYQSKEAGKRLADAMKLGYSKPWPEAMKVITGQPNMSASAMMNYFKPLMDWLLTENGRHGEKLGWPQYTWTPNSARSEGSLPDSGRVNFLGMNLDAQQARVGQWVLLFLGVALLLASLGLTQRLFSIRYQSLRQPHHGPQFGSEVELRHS
Put plainly: ACE-inhibitory activity determination by HPLC (hippuric acid from Hip-His-Leu). The class given is biochemical. The following applies: HPLC of hippuric acid, Hip-His-Leu 5 mM, sodium borate buffer 50 mM pH 8.1, ACE 0.1 U/mL, 37°C 60 min, mean ± SD, triplicate, read-out: IC50 of ACE inhibition. How it is done:
The determination was measured by HPLC, with slight changes according to the procedure described by [Gonzalez-Gonzalez et al. (2011)]. The sample (20 μL) was dissolved in 120 μL Hip-His-Leu (5 mM) with sodium borate buffer (50 mM, pH 8.1). After incubation at 37°C for 3 min, the ACE solution (0.1 U/mL, 10 μL) was added to the sample and incubated for 60 min at the above temperature. Subsequently, 0.15 mL HCl (1 M) was used to terminate the reaction. The content of hippuric acid (HA) produced by reaction was determined by reverse-phase high-performance liquid chromatography (RP-HPLC, Waters Corporation, United States). A symmetry C18 Column (3.9 × 150 mm, 5 μm, Waters, United States) was used with the Waters HPLC model Alliance 2690 system, which included an ultraviolet detector (Waters, United States). […] Flow rate was 0.8 mL/min. The sample (6 μL) was filtered (0.45 μm filter) and measured at 228 nm. A standard curve was generated using concentrations of standard HA and peak areas. The ACE-inhibitory activity was determined as:
ACEinhibitoryactivity(%)=[HA]control-[HA]sample/[HA]control×100%
The concentration of inhibitor that inhibits 50% ACE activity is defined as IC50 value.

[2] abbreviates: peptides from low-fat milk fermented with several LAB, ref Chen et al. (2007).

For the substance Gly-Thr-Trp, the IC50 in the assay with ACE (setting [2]) is 464 µM.

Take Gly-Val-Trp: the IC50 in the assay with ACE (setting [2]) was 240 µM.

Turning to KAALSGM [Lys-Ala-Ala-Leu-Ser-Gly-Met], the IC50 in assay [1] was 110 ± 3.87 µM.

On to KKAAMAM [Lys-Lys-Ala-Ala-Met-Ala-Met], for which the IC50 in assay [1] stood at 189 ± 4.61 µM.

With KPAGDF [Lys-Pro-Ala-Gly-Asp-Phe], the IC50 in assay [1] was 77.5 ± 2.74 µM.

As to “LDHVPGGAR [Leu-Asp-His-Val-Pro-Gly-Gly-Ala-Arg]”, the IC50 in assay [1] is 201 ± 5.24 µM.

For the substance “RLSFDP [literature peptide from β-lactoglobulin hydrolysate (f148-153), sour milk fermented with Lb. helveticus LB10]”, the IC50 with ACE (from sour milk fermented with Lb. helveticus LB10, β-lactoglobulin hydrolysate (f148-153), ref Pan and Guo (2010)) is 177 µM.
